Measurements from patent publication US20250082674A1, “METHODS OF TREATING COPPER METABOLISM-ASSOCIATED DISEASES OR DISORDERS” (priority 2021, published 2025).
Where two headings read alike, the source gives them in different places.

How the values were obtained:
copper = test system: copper
Source text: These participants had all intake (food and drink) and output (urine and feces) collected from Day-4 through Day-1 (baseline), from Day 1 through Day 8, and Day 25 through Day 39.

[1] = human, in vivo

Source text for albumin levels: Across the 301, 201, and 205 studies, 102 participants had cirrhosis at baseline.

For Bis-choline tetrathiomolybdate [BC-TTM], which “Increase from Baseline in Directly Measured NCC, Mean (SD)” value (shortened to “Increase from Baseline … (SD)”) (copper; Study 204, Day 29, 12 Hours Post-Dose) is on record?
The value was 4.749 (2.205) μmol/L.

What about the “Increase from Baseline … (SD)” value (copper; Study 204, Day 29, 24 Hours Post-Dose) of the same substance?
Its value is 3.543 (1.397) μmol/L.

And the “Increase from Baseline … (SD)” value (copper; Study 204, Day 29, −0.5 Hours)?
Its value is 2.662 (1.209) μmol/L.

What about the “Increase from Baseline … (SD)” value (copper; Study 204, Day 31, Pre-Dose) of the same substance?
Its value is 4.121 (2.779) μmol/L.

And the “Increase from Baseline … (SD)” value (copper; Study 204, Day 32, Pre-Dose (N=1))?
Its value is 8.131 (NA) μmol/L.

What about the “Increase from Baseline … (SD)” value (copper; Study 204, Day 33, Pre-Dose) of the same substance?
The value was 4.231 (4.114) μmol/L.

And the “Increase from Baseline … (SD)” value (copper; Study 204, Day 34, Pre-Dose)?
Its value is 4.103 (3.872) μmol/L.

What about the “Increase from Baseline … (SD)” value (copper; Study 204, Day 35, Pre-Dose) of the same substance?
Its value is 4.49 (4.526) μmol/L.

And the “Increase from Baseline … (SD)” value (copper; Study 204, Day 36, Pre-Dose)?
The value was 3.465 (3.016) μmol/L.

What about the “Increase from Baseline … (SD)” value (copper; Study 204, Day 37, Pre-Dose) of the same substance?
The value was 4.168 (4.069) μmol/L.

What about the “Increase from Baseline … (SD)” value (copper; Study 204, Day 38, Pre-Dose (N=1)) of the same substance?
The value was 7.643 (NA) μmol/L.

What about the “Increase from Baseline … (SD)” value (copper; Study 204, Day 39, 2 Hours Post-Dose) of the same substance?
The value was 3.816 (3.943) μmol/L.

And the “Increase from Baseline … (SD)” value (copper; Study 204, Day 39, 4 Hours Post-Dose)?
The value was 5.578 (5.922) μmol/L.

And the “Increase from Baseline … (SD)” value (copper; Study 204, Day 39, 5 Hours Post-Dose)?
Its value is 6.26 (6.245) μmol/L.

And the “Increase from Baseline … (SD)” value (copper; Study 204, Day 39, 6 Hours Post-Dose)?
Its value is 6.659 (5.704) μmol/L.

What about the “Increase from Baseline … (SD)” value (copper; Study 204, Day 39, 8 Hours Post-Dose) of the same substance?
Its value is 7.32 (6.096) μmol/L.

And the “Increase from Baseline … (SD)” value (copper; Study 204, Day 39, 12 Hours Post-Dose)?
The value was 6.554 (4.695) μmol/L.

What about the “Increase from Baseline … (SD)” value (copper; Study 204, Day 39, 24 Hours Post-Dose) of the same substance?
The value was 4.545 (3.677) μmol/L.

What about the “Increase from Baseline … (SD)” value (copper; Study 204, Day 39, −0.5 Hours) of the same substance?
Its value is 3.412 (3.688) μmol/L.

And the “covariate effect of age on plasma total molybdenum clearance” value [1]?
Its value is “age is not a significant covariate”.

And the “Albumin Level” value (albumin levels; Study 201 (normal 33-49), Participant 9, Baseline)?
Its value is 29 mg/dL.

And the “Albumin Level” value (albumin levels; Study 201 (normal 33-49), Participant 9, Week 48)?
Its value is 45 mg/dL.

And the “Albumin Level” value (albumin levels; Study 201 (normal 33-49), Participant 9, Week 150, early termination)?
The value was 46 mg/dL.

What about the “Albumin Level” value (albumin levels; Study 201 (normal 33-49), Participant 10, Baseline) of the same substance?
The value was 29 mg/dL.

What about the “Albumin Level” value (albumin levels; Study 201 (normal 33-49), Participant 10, Week 48) of the same substance?
Its value is 40 mg/dL.

What about the “Albumin Level” value (albumin levels; Study 201 (normal 33-49), Participant 10, Week 98) of the same substance?
The value was 40 mg/dL.

And the “Albumin Level” value (albumin levels; Study 201 (normal 33-49), Participant 10, Week 163, early termination)?
The value was 39 mg/dL.

What about the “Albumin Level” value (albumin levels; Study 201 (normal 33-49), Participant 11, Baseline) of the same substance?
The value was 31 mg/dL.

And the “Albumin Level” value (albumin levels; Study 201 (normal 33-49), Participant 11, Week 48)?
The value was 44 mg/dL.

What about the “Albumin Level” value (albumin levels; Study 201 (normal 33-49), Participant 11, Week 98) of the same substance?
Its value is 46 mg/dL.

And the “Albumin Level” value (albumin levels; Study 201 (normal 33-49), Participant 11, Week 150)?
The value was 44 mg/dL.

And the “Albumin Level” value (albumin levels; Study 205 (normal 35-55), Participant 12, Baseline)?
Its value is 36 mg/dL.

And the “Albumin Level” value (albumin levels; Study 205 (normal 35-55), Participant 12, Day 43)?
Its value is 33 mg/dL.

What about the “Albumin Level” value (albumin levels; Study 205 (normal 35-55), Participant 12, Day 57) of the same substance?
The value was 30 mg/dL.

What about the “Albumin Level” value (albumin levels; Study 205 (normal 35-55), Participant 12, Day 169) of the same substance?
Its value is 34 mg/dL.

What about the “Albumin Level” value (albumin levels; Study 205 (normal 35-55), Participant 12, Day 253) of the same substance?
The value was 34 mg/dL.

What about the “Albumin Level” value (albumin levels; Study 205 (normal 35-55), Participant 12, Day 337, early termination) of the same substance?
The value was 37 mg/dL.

What about the “Albumin Level” value (albumin levels; Study 205 (normal 35-55), Participant 13, Baseline) of the same substance?
The value was 45 mg/dL.

And the “Albumin Level” value (albumin levels; Study 205 (normal 35-55), Participant 13, Day 345)?
The value was 27 mg/dL.

And the “Albumin Level” value (albumin levels; Study 301 (normal 35-55), Participant 1, Baseline)?
Its value is 33 mg/dL.

What about the “Albumin Level” value (albumin levels; Study 301 (normal 35-55), Participant 1, Week 48) of the same substance?
The value was 47 mg/dL.

And the “Albumin Level” value (albumin levels; Study 301 (normal 35-55), Participant 1, Week 96)?
The value was 48 mg/dL.

What about the “Albumin Level” value (albumin levels; Study 301 (normal 35-55), Participant 2, Baseline) of the same substance?
Its value is 37 mg/dL.

What about the “Albumin Level” value (albumin levels; Study 301 (normal 35-55), Participant 2, Week 48) of the same substance?
Its value is 34 mg/dL.

And the “Albumin Level” value (albumin levels; Study 301 (normal 35-55), Participant 2, Week 60, early termination)?
The value was 25 mg/dL.

And the “Albumin Level” value (albumin levels; Study 301 (normal 35-55), Participant 3, Baseline)?
Its value is 34 mg/dL.

What about the “Albumin Level” value (albumin levels; Study 301 (normal 35-55), Participant 3, Week 48) of the same substance?
Its value is 36 mg/dL.

What about the “Albumin Level” value (albumin levels; Study 301 (normal 35-55), Participant 3, Week 60) of the same substance?
Its value is 34 mg/dL.

And the “Albumin Level” value (albumin levels; Study 301 (normal 35-55), Participant 4, Baseline)?
Its value is 28 mg/dL.

And the “Albumin Level” value (albumin levels; Study 301 (normal 35-55), Participant 4, Week 48)?
Its value is 31 mg/dL.

And the “Albumin Level” value (albumin levels; Study 301 (normal 35-55), Participant 5, Baseline)?
Its value is 32 mg/dL.

And the “Albumin Level” value (albumin levels; Study 301 (normal 35-55), Participant 5, Week 48)?
Its value is 37 mg/dL.

What about the “Albumin Level” value (albumin levels; Study 301 (normal 35-55), Participant 5, Week 96) of the same substance?
The value was 37 mg/dL.

And the “Albumin Level” value (albumin levels; Study 301 (normal 35-55), Participant 6, Baseline)?
Its value is 29 mg/dL.

And the “Albumin Level” value (albumin levels; Study 301 (normal 35-55), Participant 6, Week 24)?
The value was 35 mg/dL.

What about the “Albumin Level” value (albumin levels; Study 301 (normal 35-55), Participant 6, Week 48) of the same substance?
The value was 42 mg/dL.

And the “Albumin Level” value (albumin levels; Study 301 (normal 35-55), Participant 6, Week 96)?
Its value is 40 mg/dL.

And the “Albumin Level” value (albumin levels; Study 301 (normal 35-55), Participant 7, Baseline (Week 48 Extension Day 1))?
Its value is 42 mg/dL.

And the “Albumin Level” value (albumin levels; Study 301 (normal 35-55), Participant 7, Week 8)?
Its value is 37 mg/dL.

What about the “Albumin Level” value (albumin levels; Study 301 (normal 35-55), Participant 7, Week 24) of the same substance?
The value was 36 mg/dL.

And the “Albumin Level” value (albumin levels; Study 301 (normal 35-55), Participant 7, Week 30)?
Its value is 35 mg/dL.

And the “Albumin Level” value (albumin levels; Study 301 (normal 35-55), Participant 7, Week 48)?
Its value is 35 mg/dL.

What about the “Albumin Level” value (albumin levels; Study 301 (normal 35-55), Participant 7, Week 144) of the same substance?
Its value is 37 mg/dL.

And the “Albumin Level” value (albumin levels; Study 301 (normal 35-55), Participant 8, Baseline (Week 48 Extension Day 1))?
The value was 42 mg/dL.

What about the “Albumin Level” value (albumin levels; Study 301 (normal 35-55), Participant 8, Week 120, early termination) of the same substance?
The value was 32 mg/dL.

And the “participants with cirrhosis at baseline who experienced changes in albumin levels” value (albumin levels; of 102, Studies 301, 201, 205)?
Its value is 13 participants.

What about the “participants with cirrhosis at baseline whose albumin levels remained stable” value (albumin levels; of 102, Studies 301, 201, 205) of the same substance?
The value was 89 participants.

What about the “participants with cirrhosis at baseline who maintained liver function (albumin levels)” value (albumin levels; of 102 participants) of the same substance?
Its value is 87%.

What about the “cirrhotic participants whose albumin levels returned to the normal range” value (albumin levels; of the 13 with changes in liver function) of the same substance?
Its value is 7 participants.
